Data set [1] can be described thus: Acid dissociation constant, pKa of the compound. In kind it is physicochemical.
In data set [2] the target is T1, Thymidine phosphorylase (Homo sapiens, UniProt P19971).
T1 sequence (P19971 whole entry): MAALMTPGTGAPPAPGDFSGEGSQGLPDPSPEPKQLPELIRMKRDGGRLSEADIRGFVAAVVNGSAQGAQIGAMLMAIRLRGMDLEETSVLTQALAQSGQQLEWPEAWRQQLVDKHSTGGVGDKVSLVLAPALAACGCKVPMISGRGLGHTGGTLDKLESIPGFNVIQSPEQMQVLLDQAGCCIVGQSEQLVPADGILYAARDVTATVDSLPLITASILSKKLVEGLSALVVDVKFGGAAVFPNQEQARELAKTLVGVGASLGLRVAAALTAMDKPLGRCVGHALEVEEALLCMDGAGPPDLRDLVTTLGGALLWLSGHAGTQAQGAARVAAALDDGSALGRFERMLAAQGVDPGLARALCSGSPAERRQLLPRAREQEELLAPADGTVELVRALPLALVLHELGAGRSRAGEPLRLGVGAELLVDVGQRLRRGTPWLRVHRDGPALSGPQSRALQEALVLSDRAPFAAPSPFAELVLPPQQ
The experiment in a line: Inhibition of human recombinant thymidine phosphorylase expressed in V79 cells. The data set is classed as cell-based.

Data set [3] concerns the target T1, Thymidine phosphorylase. The experiment in a line: Inhibition of human placental thymidine phosphorylase.

Each structure is given as a SMILES string.

As a reminder, the pKa is the pH at which an ionisable group is half protonated. Lower therefore signals a stronger acid or weaker base. In data set [1], `O=c1[nH]c(Cl)c(C2=CCCC2)c(=O)[nH]1` had a pKa of 5.8.

The term Ki denotes a measure of affinity in units of concentration, obtained from inhibition or displacement. On to `NCCNc1[nH]c(=O)[nH]c(=O)c1-c1ccccc1`, for which the Ki in data set [2] and in data set [3] was over 20 µM in each case.

Take `CCc1c(Cl)[nH]c(=O)[nH]c1=O`: the Ki in data set [2] and in data set [3] was over 20 µM in each case.

In the case of `O=c1[nH]c(N2CCCC2)c(-c2ccccc2)c(=O)[nH]1`, the Ki in data set [2] and in data set [3] was over 20 µM each time.

On to `Cc1[nH]c(=O)[nH]c(=O)c1-c1ccccc1`, for which the Ki in data set [2] and in data set [3] was over 20 µM throughout.

Source of the values: ChEMBL document CHEMBL1138271, “Discovery of 5-substituted-6-chlorouracils as efficient inhibitors of human thymidine phosphorylase” (J Med Chem, 2007).
